Format in all cases: functional, organism-based
Experiment [1] deals with Felis catus. Put plainly: Ganglion-stimulant activity in cat assessed as pressor response up to 1000 ug/kg, iv.
Experiment [2] has as its system Felis catus. The experiment can be described thus: Ganglion-stimulant activity in iv dosed cat assessed as depressor response.
Experiment [3] has as its system Felis catus. Put plainly: Inhibition of McN-A-343-induced pressor response in iv dosed cat.

The source made the active and inactive calls. No cut-off for these calls is given here.

Turning to `C[N+](C)(C)C[C@@H]1[C@H]2CC[C@@H](C2)[C@H]1COC(=O)Nc1ccc(Cl)cc1`, the result in the experiment on Felis catus [1] and with Felis catus [2] was inactive. The inhibition result with Felis catus [3] is “inactive”.

`C[N+](C)(C)C[C@H]1[C@H]2CC[C@@H](C2)[C@H]1COC(=O)Nc1ccc(Cl)cc1`: the result in the experiment with Felis catus [1] and in the experiment on Felis catus [2] was inactive. In addition, in the experiment on Felis catus [3], the inhibition entry was “inactive”.

In the case of `C[N+](C)(C)C[C@H]1[C@H]2CC[C@@H](C2)[C@@H]1COC(=O)Nc1ccc(Cl)cc1`, the result in the experiment on Felis catus [1] and with Felis catus [2] was inactive. The inhibition entry in the experiment on Felis catus [3] is “inactive”.

`C[N+](C)(C)CC#CCOC(=O)Nc1cccc(Cl)c1`: the outcome in the experiment on Felis catus [1] was Active.

In the case of `C[N+](C)(C)C[C@@H]1[C@@H](COC(=O)Nc2ccc(Cl)cc2)[C@H]2C=C[C@H]1C2`, the result with Felis catus [1] and with Felis catus [2] was inactive. The inhibition entry with Felis catus [3] is “inactive”.

On to `C[N+](C)(C)C[C@@H]1[C@H]2CC[C@@H](C2)[C@@H]1COC(=O)Nc1ccc(Cl)cc1`, for which the result in the experiment on Felis catus [1] and with Felis catus [2] was inactive. For the same molecule, in the experiment on Felis catus [3], the inhibition result is “inactive”.

Regarding `C[N+](C)(C)C[C@H]1[C@H](COC(=O)Nc2ccc(Cl)cc2)[C@H]2C=C[C@H]1C2`, the result with Felis catus [1] and in the experiment with Felis catus [2] was inactive. Further, in the experiment on Felis catus [3], the inhibition result is “inactive”.

For the molecule `C[N+](C)(C)C[C@H]1[C@@H](COC(=O)Nc2ccc(Cl)cc2)[C@H]2C=C[C@H]1C2`, the result with Felis catus [1] and in the experiment with Felis catus [2] was inactive. For the same molecule, the inhibition entry in the experiment on Felis catus [3] was “inactive”.

Take `C[N+](C)(C)C[C@@H]1[C@H](COC(=O)Nc2ccc(Cl)cc2)[C@H]2C=C[C@H]1C2`: the outcome in the experiment on Felis catus [1] and with Felis catus [2] was inactive. For the same molecule, the inhibition entry in the experiment with Felis catus [3] is “inactive”.

These data come from ChEMBL document CHEMBL3272078, “Stereochemical analogs of a muscarinic, ganglionic stimulant. 3. 2,3-Substituted bicyclo(2.2.1)hept-5-enes and -heptanes related to 4-(N-(3-chlorophenyl)carbamoyloxy)-2-butynyltrimethylammonium chloride (McN-A-343)” (J Med Chem, 1976).
